target: HEK293 cells with stable expression of the GRIN1 gene and tetracycline-inducible expression of the GRIN2B gene (NMDA receptor, NR2B) (Homo sapiens, UniProt Q13224); experiment: Fluo-8 Ca2+ flux assay: reversal of Ro 25-6981-mediated suppression of the Ca2+ response to co-agonist (glutamate/glycine); format: cell-based; conditions: reversal of the Ro 25-6981 suppression of the Ca2+ response to co-agonist (glutamate/glycine); further: test concentration or dose not given here
Sequence (Q13224 27-1484, other chains not shown): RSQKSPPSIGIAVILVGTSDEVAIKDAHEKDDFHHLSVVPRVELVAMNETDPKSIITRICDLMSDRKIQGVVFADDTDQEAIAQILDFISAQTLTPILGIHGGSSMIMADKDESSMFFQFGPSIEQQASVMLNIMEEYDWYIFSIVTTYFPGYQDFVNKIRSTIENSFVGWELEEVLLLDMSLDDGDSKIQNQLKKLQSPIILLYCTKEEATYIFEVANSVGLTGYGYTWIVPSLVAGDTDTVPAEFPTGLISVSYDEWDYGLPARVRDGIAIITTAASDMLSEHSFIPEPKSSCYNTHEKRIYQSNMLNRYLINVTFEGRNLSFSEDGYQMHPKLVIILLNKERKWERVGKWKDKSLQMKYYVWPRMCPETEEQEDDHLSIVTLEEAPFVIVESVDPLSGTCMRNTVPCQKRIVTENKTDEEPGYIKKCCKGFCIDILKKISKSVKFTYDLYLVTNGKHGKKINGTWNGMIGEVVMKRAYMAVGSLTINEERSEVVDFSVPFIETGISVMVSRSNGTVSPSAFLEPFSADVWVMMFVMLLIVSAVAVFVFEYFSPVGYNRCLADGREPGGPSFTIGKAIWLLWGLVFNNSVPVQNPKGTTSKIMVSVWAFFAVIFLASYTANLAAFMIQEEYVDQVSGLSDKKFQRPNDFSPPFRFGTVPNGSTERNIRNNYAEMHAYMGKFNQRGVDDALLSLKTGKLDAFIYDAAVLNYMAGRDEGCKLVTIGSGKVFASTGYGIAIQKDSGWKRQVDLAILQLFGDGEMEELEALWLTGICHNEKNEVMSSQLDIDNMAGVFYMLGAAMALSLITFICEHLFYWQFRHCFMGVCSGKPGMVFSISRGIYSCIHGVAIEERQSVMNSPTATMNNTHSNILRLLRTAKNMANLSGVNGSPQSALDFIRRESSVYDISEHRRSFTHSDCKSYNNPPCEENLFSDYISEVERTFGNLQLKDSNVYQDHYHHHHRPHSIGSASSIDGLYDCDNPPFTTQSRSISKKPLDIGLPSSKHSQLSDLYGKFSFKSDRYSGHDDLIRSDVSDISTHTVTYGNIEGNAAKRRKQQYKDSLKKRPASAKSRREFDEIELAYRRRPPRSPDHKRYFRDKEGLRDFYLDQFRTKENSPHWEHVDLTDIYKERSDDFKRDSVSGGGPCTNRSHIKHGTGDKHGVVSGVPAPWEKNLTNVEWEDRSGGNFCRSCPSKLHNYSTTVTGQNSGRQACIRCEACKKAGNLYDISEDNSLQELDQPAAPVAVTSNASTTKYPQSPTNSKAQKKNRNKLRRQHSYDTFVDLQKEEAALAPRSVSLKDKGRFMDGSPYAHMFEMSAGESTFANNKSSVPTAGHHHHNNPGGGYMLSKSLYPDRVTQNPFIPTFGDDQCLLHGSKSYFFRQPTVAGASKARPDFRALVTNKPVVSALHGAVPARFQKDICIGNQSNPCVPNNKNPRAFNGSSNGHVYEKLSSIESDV

| Response Recovered (%) | SMILES |
| --- | --- |
| 16% | CC1(O)CN(C(=O)Cn2ccc3scc(-c4ccc(Cl)c(Cl)c4)c3c2=O)C1 [Example 61, 3-(3,4-dichlorophenyl)-5-(2-(3-hydroxy-3-methylazetidin-1-yl)-2-oxoethyl)thieno[3,2-c]pyridin-4(5H)-one] |
| −6.4% | CC1(NC(=O)OC(C)(C)C)CN(C(=O)Cn2ccc3scc(-c4ccc(F)c(C(F)(F)F)c4)c3c2=O)C1 [Example 77, tert-butyl (1-(2-(3-(4-fluoro-3-(trifluoromethyl)phen-yl)-4-oxothieno[3,2-c]pyridin-5(4H)-yl)acetyl)-3-methylazetidin-3-yl)carbamate] |
| 50% | O=C(Cn1ccn2ncc(-c3ccc(Cl)c(Cl)c3)c2c1=O)N1CC(F)(F)C1 [Example 325, 3-(3,4-dichlorophenyl)-5-(2-(3,3-difluoroazetidin-1-yl)-2-oxoethyl)pyrazolo[1,5-a]pyrazin-4(5H)-one] |
| 54% | O=C(Cn1ccn2ncc(-c3ccc(Cl)c(Cl)c3)c2c1=O)N1CCC(F)C1 (centres unmarked) [Example 327, 3-(3,4-dichlorophenyl)-5-(2-(3-fluoropyrrolidin-1-yl)-2-oxoethyl)pyrazolo[1,5-a]pyrazin-4(5H)-one] |
| 54% | O=C(Cn1cnc2[nH]cc(-c3ccc(F)c(Cl)c3)c2c1=O)N1CCC(F)C1 (centres unmarked) [Example 178, 5-(3-chloro-4-fluorophenyl)-3-(2-(3-fluoropyrrolidin-1-yl)-2-oxoethyl)-3H-pyrrolo[2,3-d]pyrimidin-4(7H)-one] |
| 120% | CC1(F)CN(C(=O)Cn2ccc3c(c(-c4ccc(F)c(Cl)c4)cn3C3COC3)c2=O)C1 [Example 282, 3-(3-chloro-4-fluorophenyl)-5-(2-(3-fluoro-3-methylazetidin-1-yl)-2-oxoethyl)-1-(oxetan-3-yl)-1,5-dihydro-4H-pyrrolo[3,2-c]pyridin-4-one] |
| 80% | CC1(F)CN(C(=O)Cn2ccc3c(c(-c4cnc(F)c(Cl)c4)cn3C3CC3)c2=O)C1 [Example 291, 3-(5-chloro-6-fluoropyridin-3-yl)-1-cyclopropyl-5-(2-(3-fluoro-3-methylazetidin-1-yl)-2-oxoethyl)-1H-pyrrolo[3,2-c]pyridin-4(5H)-one] |
| 26% | Cc1cn(CC(=O)N2CCC(F)C2)c(=O)n2c(-c3ccc(Cl)c(Cl)c3)cnc12 (centres unmarked) [Example 453, 3-(3,4-dichlorophenyl)-6-(2-(3-fluoropyrrolidin-1-yl)-2-oxoethyl)-8-methylimidazo[1,2-c]pyrimidin-5(6H)-one] |
| 57% | CCn1cc(-c2ccc(Cl)c(C(F)(F)F)c2)c2c(=O)n(CC(=O)N3CC(F)(F)C3)cnc21 [Example 169] |
| 28% | O=C(Cn1ccc2scc(-c3cnc(Cl)c(C(F)(F)F)c3)c2c1=O)N1CCC(F)C1 (centres unmarked) [Example 25, 3-(6-chloro-5-(trifluoromethyl)pyri-din-3-yl)-5-(2-(3-fluoropyrrolidin-1-yl)-2-oxoethyl)thieno[3,2-c]pyridin-4(5H)-one] |
| 42% | O=C(Cn1ccc2[nH]cc(-c3ccc(Cl)c(C(F)(F)F)c3)c2c1=O)N1CCC(F)C1 (centres unmarked) [Example 203, 3-(4-chloro-3-(trifluoromethyl)phenyl)-5-(2-(3-fluoropyrrolidin-1-yl)-2-oxoethyl)-1H-pyrrolo[3,2-c]pyridin-4(5H)-one] |
| 10% | O=C(Cn1cnc2csc(-c3ccc(Cl)cc3)c2c1=O)N1CCCC1C(F)(F)F (centres unmarked) [Example 355, 5-(4-chlorophenyl)-3-(2-oxo-2-(2-(trifluoromethyl)pyrrolidin-1-yl)ethyl)thieno[3,4-d]pyrimidin-4(3H)-one] |
| 130% | O=C(Cn1ccn2ccc(-c3ccc(F)c(Cl)c3)c2c1=O)N1CC(F)(CF)C1 [Example 402, 8-(3-chloro-4-fluorophenyl)-2-(2-(3-fluoro-3-(fluoromethyl)azetidin-1-yl)-2-oxoethyl)pyrrolo[1,2-a]pyrazin-1(2H)-one] |
| 100% | Cc1cc(-c2csc3ccn(CC(=O)N4CC(C)(F)C4)c(=O)c23)ccc1F [Example 23, 5-(2-(3-fluoro-3-methylazetidin-1-yl)-2-oxoethyl)-3-(4-fluoro-3-methylphenyl)thieno[3,2-c]pyridin-4(5H)-one] |
| 110% | CC1(F)CN(C(=O)Cn2ccn3ncc(-c4ccc(F)c(Cl)c4)c3c2=O)C1 [Example 329, 3-(3-chloro-4-fluorophenyl)-5-(2-(3-fluoro-3-methylazetidin-1-yl)-2-oxoethyl)pyrazolo[1,5-a]pyrazin-4(5H)-one] |
| 27% | Cn1cc(-n2cc(-c3ccc(F)c(Cl)c3)c3c(=O)n(CC(=O)N4CCC(F)C4)ccc32)nn1 (centres unmarked) [Example 267, 3-(3-chloro-4-fluorophenyl)-5-(2-(3-fluoropyrrolidin-1-yl)-2-oxoethyl)-1-(1-methyl-1H-1,2,3-triazol-4-yl)-1H-pyrrolo[3,2-c]pyridin-4(5H)-one] |
| 2% | O=C(Cn1cnc2onc(-c3ccc(Cl)cc3)c2c1=O)N1CCCC1C(F)(F)F (centres unmarked) [Example 384, 3-(4-chlorophenyl)-5-{2-oxo-2-[2-(trifluoromethyl)pyrrolidin-1-yl]ethyl}-4H,5H-[1,2]oxazolo[5,4-d]pyrimidin-4-one] |
| 3% | O=C(Cn1cnc2ccn(-c3ccc(Cl)cc3)c2c1=O)N1CCC(F)(F)CC1 [Example 373, 5-(4-chlorophenyl)-3-(2-(4,4-difluoropiperidin-1-yl)-2-oxoethyl)-3H-pyrrolo[3,2-d]pyrimidin-4(5H)-one] |
| 33% | Cc1sc(-c2ccc(Cl)c(F)c2)c2c(=O)n(CC(=O)N3CCCC3)cnc12 [Example 369, 5-(4-chloro-3-fluorophenyl)-7-methyl-3-(2-oxo-2-(pyrrolidin-1-yl)ethyl)thieno[3,4-d]pyrimidin-4(3H)-one] |
| 12% | O=C(Cn1ccc2scc(-c3ccc(F)c(C(F)(F)F)c3)c2c1=O)N1CC(F)(C2CC2)C1 [Example 45, 5-(2-(3-cyclopropyl-3-fluoroazetidin-1-yl)-2-oxoethyl)-3-(4-fluoro-3-(trifluoromethyl)phen-yl)thieno[3,2-c]pyridin-4(5H)-one] |
| 4% | O=C(Cn1cnc2onc(-c3ccc(Cl)cc3)c2c1=O)N1CCC(F)C1 (centres unmarked) [Example 386, 3-(4-chlorophenyl)-5-(2-(3-fluoropyrrolidin-1-yl)-2-oxoethyl)isoxazolo[5,4-d]pyrimidin-4(5H)-one] |
| 76% | CC1CN(C(=O)Cn2ccc3scc(-c4ccc(F)c(C(F)(F)F)c4)c3c2=O)C1 [Example 60, 3-(4-fluoro-3-(trifluoromethyl)phen-yl)-5-(2-(3-methylazetidin-1-yl)-2-oxoethyl)thieno[3,2-c]pyridin-4(5H)-one] |
| 35% | O=C(Cn1cnc2csc(-c3ccc(Cl)c(F)c3)c2c1=O)N1CCC(F)C1 (centres unmarked) [Example 364, 5-(4-chloro-3-fluorophenyl)-3-(2-(3-fluoropyrrolidin-1-yl)-2-oxoethyl)thieno[3,4-d]pyrimidin-4(3H)-one] |
| 77% | O=C(Cn1cnc2[nH]cc(-c3ccc(Cl)c(Cl)c3)c2c1=O)N1CCC(F)C1 (centres unmarked) [Example 175, 5-(3,4-dichlorophenyl)-3-(2-(3-fluoropyrrolidin-1-yl)-2-oxoethyl)-3H-pyrrolo[2,3-d]pyrimidin-4(7H)-one] |
| 5% | O=C(Cn1cnc2ccn(-c3ccc(Cl)cc3)c2c1=O)N1CCCC1C(F)(F)F (centres unmarked) [Example 379, 5-(4-chlorophenyl)-3-(2-oxo-2-(2-(trifluoromethyl)pyrrolidin-1-yl)ethyl)-3H-pyrrolo[3,2-d]pyrimidin-4(5H)-one] |
| 23% | O=C(Cn1cc(-c2ccccc2)c2scc(-c3ccc(Cl)c(C(F)(F)F)c3)c2c1=O)N1CCCC1 [Example 102, 3-(4-chloro-3-(trifluoromethyl)phenyl)-5-(2-oxo-2-(pyrrolidin-1-yl)ethyl)-7-phenylthieno[3,2-c]pyridin-4(5H)-one] |
| 22% | COC1(C)CN(C(=O)Cn2ccc3scc(-c4ccc(F)c(C(F)(F)F)c4)c3c2=O)C1 [Example 64, 3-(4-fluoro-3-(trifluoromethyl)phen-yl)-5-(2-(3-methoxy-3-methylazetidin-1-yl)-2-oxoethyl)thieno[3,2-c]pyridin-4(5H)-one] |
| 18% | COCCn1cc(-c2ccc(F)c(Cl)c2)c2c(=O)n(CC(=O)N3CCCC3)cnc21 [Example 186, 5-(3-chloro-4-fluorophenyl)-7-(2-methoxyethyl)-3-(2-oxo-2-(pyrrolidin-1-yl)ethyl)-3H-pyrrolo[2,3-d]pyrimidin-4(7H)-one] |
| 3% | O=C(CCn1ccc2scc(-c3ccc(Cl)c(C(F)(F)F)c3)c2c1=O)N1CCC(F)C1 (centres unmarked) [Example 24, 3-(4-chloro-3-(trifluoromethyl)phenyl)-5-(3-(3-fluoropyrrolidin-1-yl)-3-oxopropyl)thieno[3,2-c]pyridin-4(5H)-one] |

| SMILES | Response Recovered (%) |
| --- | --- |
| CC1(F)CN(C(=O)Cn2cnn3cnc(-c4ccc(F)c(Cl)c4)c3c2=O)C1 [Example 424, 5-(3-chloro-4-fluorophenyl)-3-(2-(3-fluoro-3-methylazetidin-1-yl)-2-oxoethyl)imidazo[5,1-f][1,2,4]triazin-4(3H)-one] | 0.55% |
| C[Si](C)(C)CCOCn1cc(-c2ccc(Cl)c(C(F)(F)F)c2)c2c(=O)n(CC(=O)N3CC(F)(F)C3)ccc21 [Example 200, 3-(4-chloro-3-(trifluoromethyl)phenyl)-5-(2-(3,3-difluoroazetidin-1-yl)-2-oxoethyl)-1-((2-(trimethylsilyl)ethoxy)methyl)-1H-pyrrolo[3,2-c]pyridin-4(5H)-one] | 18% |
| C[Si](C)(C)CCOCn1cc(-c2ccc(F)c(Cl)c2)c2c(=O)n(CC(=O)N3CCC(F)C3)ccc21 (centres unmarked) [Example 206, 3-(3-chloro-4-fluorophenyl)-5-(2-(3-fluoropyrrolidin-1-yl)-2-oxoethyl)-1-((2-(trimethylsilyl)ethoxy)methyl)-1H-pyrrolo[3,2-c]pyridin-4(5H)-one] | 107% |

Reference: patent US12162890B2 (Novartis AG, priority 2015, dated 2024)
